SMILES strings stand for the structures.

Chain of wild-type human cardiac sodium channel, hNav1.5 (Q14524 whole entry): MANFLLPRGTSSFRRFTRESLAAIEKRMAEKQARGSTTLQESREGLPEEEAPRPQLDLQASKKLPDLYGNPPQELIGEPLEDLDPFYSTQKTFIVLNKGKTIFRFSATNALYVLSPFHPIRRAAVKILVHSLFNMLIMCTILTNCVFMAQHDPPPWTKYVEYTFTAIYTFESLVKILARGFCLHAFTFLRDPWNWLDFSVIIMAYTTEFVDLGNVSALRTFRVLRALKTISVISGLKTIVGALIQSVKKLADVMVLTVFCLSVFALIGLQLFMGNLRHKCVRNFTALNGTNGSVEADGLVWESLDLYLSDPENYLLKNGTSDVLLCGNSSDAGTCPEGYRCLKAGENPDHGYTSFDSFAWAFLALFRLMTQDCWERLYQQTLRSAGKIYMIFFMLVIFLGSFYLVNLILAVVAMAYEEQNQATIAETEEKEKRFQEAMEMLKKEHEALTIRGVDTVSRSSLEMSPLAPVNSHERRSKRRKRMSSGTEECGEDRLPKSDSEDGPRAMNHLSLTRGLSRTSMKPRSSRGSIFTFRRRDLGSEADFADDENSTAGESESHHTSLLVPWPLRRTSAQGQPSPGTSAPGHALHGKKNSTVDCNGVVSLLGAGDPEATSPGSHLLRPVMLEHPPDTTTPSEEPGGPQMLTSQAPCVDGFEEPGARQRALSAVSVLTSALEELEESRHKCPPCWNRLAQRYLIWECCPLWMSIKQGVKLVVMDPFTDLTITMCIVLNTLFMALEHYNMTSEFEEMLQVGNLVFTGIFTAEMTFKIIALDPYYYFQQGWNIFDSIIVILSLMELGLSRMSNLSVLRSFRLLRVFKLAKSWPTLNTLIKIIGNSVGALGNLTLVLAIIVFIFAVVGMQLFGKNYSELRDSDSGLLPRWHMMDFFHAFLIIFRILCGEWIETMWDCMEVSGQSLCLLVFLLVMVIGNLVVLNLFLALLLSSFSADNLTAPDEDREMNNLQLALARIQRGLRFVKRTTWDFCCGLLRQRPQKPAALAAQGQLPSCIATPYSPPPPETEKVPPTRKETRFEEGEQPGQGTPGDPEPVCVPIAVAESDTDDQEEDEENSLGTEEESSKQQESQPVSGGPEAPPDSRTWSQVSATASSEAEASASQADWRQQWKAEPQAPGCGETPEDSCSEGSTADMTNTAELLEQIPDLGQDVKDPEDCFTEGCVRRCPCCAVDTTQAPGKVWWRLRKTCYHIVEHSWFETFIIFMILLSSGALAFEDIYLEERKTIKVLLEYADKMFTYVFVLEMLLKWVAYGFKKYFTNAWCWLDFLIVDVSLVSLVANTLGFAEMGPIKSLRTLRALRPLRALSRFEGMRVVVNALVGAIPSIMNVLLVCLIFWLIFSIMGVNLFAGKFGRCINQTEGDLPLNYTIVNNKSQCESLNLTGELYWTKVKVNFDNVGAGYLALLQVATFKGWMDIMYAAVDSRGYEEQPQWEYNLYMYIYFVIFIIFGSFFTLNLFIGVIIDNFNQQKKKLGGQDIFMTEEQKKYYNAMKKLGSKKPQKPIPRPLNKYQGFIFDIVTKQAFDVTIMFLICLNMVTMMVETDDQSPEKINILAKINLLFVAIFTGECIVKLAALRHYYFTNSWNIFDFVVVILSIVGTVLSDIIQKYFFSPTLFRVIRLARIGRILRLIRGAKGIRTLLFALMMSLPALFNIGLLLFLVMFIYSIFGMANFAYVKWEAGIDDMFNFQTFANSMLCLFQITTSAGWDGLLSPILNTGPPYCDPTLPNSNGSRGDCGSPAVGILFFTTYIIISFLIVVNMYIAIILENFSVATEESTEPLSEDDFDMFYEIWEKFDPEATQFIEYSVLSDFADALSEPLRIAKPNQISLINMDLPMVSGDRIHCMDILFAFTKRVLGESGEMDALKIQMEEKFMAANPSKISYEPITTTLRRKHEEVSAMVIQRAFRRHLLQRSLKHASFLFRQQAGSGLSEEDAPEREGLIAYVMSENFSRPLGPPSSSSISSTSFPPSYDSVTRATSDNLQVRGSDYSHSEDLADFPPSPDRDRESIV

This assay concerns the target wild-type human cardiac sodium channel, hNav1.5 (Homo sapiens, UniProt Q14524). In words: Late INa screening assay (QPatch whole cell patch clamp, HEK293). Format: cell-based. The note with it: HEK293, percent block of late INa; compound at 1 μM; 10 μM Tefluthrin; read-out: Late INa 1 μM. The protocol: The late sodium current (Late INa) and peak sodium current (Peak INa) assays are performed on an automated electrophysiology platform, QPatch 16× (Sophion Bioscience, Copenhagen, Denmark), which uses the whole cell patch clamp technique to measure currents through the cell membrane of up to 16 cells at a time. The assay uses an HEK293 (human embryonic kidney) cell line heterologously expressing the wild-type human cardiac sodium channel, hNav1.5, purchased from Millipore (Billerica, Mass.). No beta subunits were coexpressed with the Na channel alpha subunit. Cells are maintained with standard tissue culture procedures and stable channel expression is maintained with 400 μg/mL Geneticin in the culture medium. Cells isolated for use on QPatch are incubated for 5 minutes in Detachin 1×(Genlantis, San Diego, USA) at 37° C. to ensure that 80-90% of the cells are single and not part of a cell cluster. Experiments are carried out at 23-25° C.
For both the Late INa and Peak INa assays, series resistance compensation is set to 100% and series resistance and whole-cell compensation are performed automatically. Currents are digitized at 25 kHz and low-pass filtered at 12 kHz and 10 kHz for the late and peak INa assays, respectively. Currents through open sodium channels are automatically recorded and stored in the Sophion Bioscience Oracle database (Sophion Bioscience, Copenhagen, Denmark). Analysis is performed using QPatch Assay and database software and data are compiled in Excel.
Compound stocks are routinely made by the Gilead Sample Bank in plastic vials to 10 mM in dimethyl sulfoxide (DMSO). In some cases, when compounds are not soluble in DMSO, they are made in 100% ethanol. Stocks are sonicated as necessary. The extracellular solution for screening Late INa is composed of: 140 mM NaCl, 4 mM KCl, 1.8 mM CaCl2, 0.75 mM MgCl2 and 5 mM HEPES with pH adjusted to 7.4 using NaOH. The intracellular solution used to perfuse the inside of the cells for both the Late INa and Peak INa assays contains: 120 mM CsF, 20 mM CsCl, 5 mM EGTA, 5 mM HEPES and pH adjusted to 7.4 with CsOH. Compounds are diluted in extracellular solution to 1 μM in glass vials and then transferred to glass well plates before robotic addition to the cells. The 0 mM Na extracellular solution (0Na-ECF) used at the end of each experiment for the Late INa and Peak INa assays to measure baseline current contains: 140 mM N-methyl-D-glucamine; 4 mM KCl; 1.8 mM CaCl2; 0.75 mM MgCl2; 5 mM HEPES and pH was adjusted to 7.4 with HCl.
For the Late INa assay, sodium channels are activated every 10 seconds (0.1 Hz) by depolarizing the cell membrane to −20 mV for 250 milliseconds (ms) from a holding potential of −120 mV. In response to a −20 mV voltage step, typical hNav1.5 sodium currents activate rapidly to a peak negative current and then inactivate nearly completely within 3-4 ms.
Compounds were tested to determine their activity in blocking the late sodium current. Late INa was generated by adding 10 μM Tefluthrin (pyrethroid) to the extracellular solution while recording Na currents. […] ATX-II and tefluthrin occupy distinct, non-overlapping binding sites and modify Na^+ channel function differently to increase late INa. […] After establishing the whole cell recording configuration, late INa activator is added to each well 4 times over a 16-17 minute period so that the late component of the Na current reaches a stable value.
Results are reported as percent block of late INa.
(The patch-clamp technique gives a direct electrical read-out from membranes.)
As for `O=C1NC(Cc2ccccn2)COc2ccc(-c3ccc(OC(F)(F)F)cc3)cc21` (centres unmarked) [II-142, 3-(pyridin-2-ylmethyl)-7-(4-(trifluoromethoxy)phenyl)-3,4-dihydrobenzo[f][1,4]oxazepin-5(2H)-one], the inhibition at 1 µM came out at 19%.

Consider `Cc1cc(C(F)(F)F)ccc1-c1ccc2c(c1)C(=O)N(Cc1ncccn1)CCO2` [II-145, 7-(2-methyl-4-(trifluoromethyl)phenyl)-4-(pyrimidin-2-ylmethyl)-3,4-dihydrobenzo[f][1,4]oxazepin-5(2H)-one], for which the inhibition at 1 µM is 19%.

On to `Cc1cc(OC(F)(F)F)ccc1-c1ccc2c(c1)C(=O)N(Cc1ncccn1)CCO2` [II-146, 7-(2-methyl-4-(trifluoromethoxy)phenyl)-4-(pyrimidin-2-ylmethyl)-3,4-dihydrobenzo[f][1,4]oxazepin-5(2H)-one], for which the inhibition at 1 µM turned out to be 36%.

Turning to `O=C1c2cc(-c3ccc(OC(F)(F)F)cc3)ccc2OCCN1Cn1ccc(C(F)(F)F)n1` [II-148, 7-(4-(trifluoromethoxy)phenyl)-4-((3-(trifluoromethyl)-1H-pyrazol-1-yl)methyl)-3,4-dihydrobenzo[f][1,4]oxazepin-5(2H)-one], the inhibition at 1 µM was found to be 17%.

As to `O=C1c2cc(-c3ccc(CC(F)(F)F)cc3)ccc2OCCN1Cc1ncccn1` [II-150, 4-(pyrimidin-2-ylmethyl)-7-(4-(2,2,2-trifluoroethyl)phenyl)-3,4-dihydrobenzo[f][1,4]oxazepin-5(2H)-one], the inhibition at 1 µM turned out to be 27%.

On to `O=C1c2cc(-c3ccc(OC(F)(F)F)cc3)ccc2OCCN1Cc1ccn(C2CCCC2)n1` [II-152, 4-((1-cyclopentyl-1H-pyrazol-3-yl)methyl)-7-(4-(trifluoromethoxy)phenyl)-3,4-dihydrobenzo[f][1,4]oxazepin-5(2H)-one], for which the inhibition at 1 µM stood at 23%.

For `Cn1cnc(CN2CCOc3ccc(-c4ccc(OC(F)(F)F)cc4)cc3C2=O)c1` [II-154, 4-((1-methyl-1H-imidazol-4-yl)methyl)-7-(4-(trifluoromethoxy)phenyl)-3,4-dihydrobenzo[f][1,4]oxazepin-5(2H)-one], the inhibition at 1 µM amounted to 25%.

As for `O=C1c2cc(-c3ccc(OC(F)F)cc3)ccc2OCCN1Cc1ccccn1` [II-159, 7-(4-(difluoromethoxy)phenyl)-4-(pyridin-2-ylmethyl)-3,4-dihydrobenzo[f][1,4]oxazepin-5(2H)-one], the inhibition at 1 µM came out at 28%.

Regarding `Cn1cc(CN2CCOc3ccc(-c4ccc(OC(F)(F)F)cc4)cc3C2=O)cn1` [II-160, 4-((1-methyl-1H-pyrazol-4-yl)methyl)-7-(4-(trifluoromethoxy)phenyl)-3,4-dihydrobenzo[f][1,4]oxazepin-5(2H)-one], the inhibition at 1 µM turned out to be 48%.

As for `O=C1c2cc(-c3ccc(F)c(F)c3F)ccc2OCCN1Cc1ncccn1` [II-162, 4-(pyrimidin-2-ylmethyl)-7-(2,3,4-trifluorophenyl)-3,4-dihydrobenzo[f][1,4]oxazepin-5(2H)-one], the inhibition at 1 µM came to 20%.

Turning to `O=C1c2cc(-c3ccc(F)c(F)c3)ccc2OCCN1Cc1ncccn1` [II-163, 7-(3,4-difluorophenyl)-4-(pyrimidin-2-ylmethyl)-3,4-dihydrobenzo[f][1,4]oxazepin-5 (2H)-one], the inhibition at 1 µM is 28%.

As to `O=C1c2cc(-c3ccc(OC(F)(F)F)cc3)ccc2OCCN1Cc1ncccc1F` [II-164, 4-((3-fluoropyridin-2-yl)methyl)-7-(4-(trifluoromethoxy)phenyl)-3,4-dihydrobenzo[f][1,4]oxazepin-5(2H)-one], the inhibition at 1 µM was found to be 75%.

For the molecule `O=C1c2cc(-c3ccc(OS(=O)(=O)C(F)(F)F)cc3)ccc2OCCN1Cc1ncccn1` [II-171, 4-(5-oxo-4-(pyrimidin-2-ylmethyl)-2,3,4,5-tetrahydrobenzo[f][1,4]oxazepin-7-yl)phenyl trifluoromethanesulfonate], the inhibition at 1 µM was determined as 24%.

In the case of `Cc1cnc(CN2CCOc3ccc(-c4ccc(OC(F)(F)F)cc4)cc3C2=O)cn1` [II-172, 4-((5-methylpyrazin-2-yl)methyl)-7-(4-(trifluoromethoxy)phenyl)-3,4-dihydrobenzo[f][1,4]oxazepin-5(2H)-one], the inhibition at 1 µM is 33%.

For the molecule `[2H]C1([2H])Oc2ccc(-c3ccc(OC(F)(F)F)cc3)cc2C(=O)N(Cc2ncccn2)C1([2H])[2H]` [II-174, 2,2,3,3-tetradeutero-4-(pyrimidin-2-ylmethyl)-7-(4-(trifluoromethoxy)phenyl)-3,4-dihydrobenzo[f][1,4]oxazepin-5(2H)-one], the inhibition at 1 µM was 48%.

Regarding `O=C1c2cc(-c3ccc(OC(F)(F)F)cc3)ccc2OCCN1CCNS(=O)(=O)c1ccccc1` [II-177, N-(2-(5-oxo-7-(4-(trifluoromethoxy)phenyl)-2,3-dihydrobenzo[f][1,4]oxazepin-4(5H)-yl)ethyl)benzenesulfonamide], the inhibition at 1 µM amounted to 22%.

As for `CCS(=O)(=O)NCCN1CCOc2ccc(-c3ccc(OC(F)(F)F)cc3)cc2C1=O` [II-178, N-(2-(5-oxo-7-(4-(trifluoromethoxy)phenyl)-2,3-dihydrobenzo[f][1,4]oxazepin-4(5H)-yl)ethyl)ethanesulfonamide], the inhibition at 1 µM is 19%.

Consider `O=C1c2cc(-c3ccc(OC(F)(F)F)cc3)ccc2OCCN1CCNS(=O)(=O)C1CC1` [II-179, N-(2-(5-oxo-7-(4-(trifluoromethoxy)phenyl)-2,3-dihydrobenzo[f][1,4]oxazepin-4(5H)-yl)ethyl)cyclopropanesulfonamide], for which the inhibition at 1 µM was 21%.

Turning to `O=C1c2cc(-c3ccc(OC(F)(F)F)cc3)ccc2OCCN1CCCS(=O)(=O)NC1CC1` [II-190, N-cyclopropyl-3-(5-oxo-7-(4-(trifluoromethoxy)phenyl)-2,3-dihydrobenzo[f][1,4]oxazepin-4(5H)-yl)propane-1-sulfonamide], the inhibition at 1 µM is 18%.

For `O=C1c2cc(-c3ccc(OC(F)(F)F)cc3)ccc2OCCN1CCCS(=O)(=O)N1CCC1` [II-191, 4-(3-(azetidin-1-ylsulfonyl)propyl)-7-(4-(trifluoromethoxy)phenyl)-3,4-dihydrobenzo[f][1,4]oxazepin-5(2H)-one], the inhibition at 1 µM is 25%.

In the case of `O=C(NCCN1CCOc2ccc(-c3ccc(OC(F)(F)F)cc3)cc2C1=O)c1ncccn1` [II-192, N-(2-(5-oxo-7-(4-(trifluoromethoxy)phenyl)-2,3-dihydrobenzo[f][1,4]oxazepin-4(5H)-yl)ethyl)pyrimidine-2-carboxamide], the inhibition at 1 µM worked out at 15%.

Regarding `O=C1c2cc(-c3ccc(Oc4ccc(F)cc4)cc3)ccc2OCCN1Cc1ncccn1` [II-193, 7-(4-(4-fluorophenoxy)phenyl)-4-(pyrimidin-2-ylmethyl)-3,4-dihydrobenzo[f][1,4]oxazepin-5(2H)-one], the inhibition at 1 µM was 70%.

In the case of `O=C1c2cc(-c3ccc(Oc4ccccc4)cc3)ccc2OCCN1Cc1ncccn1` [II-194, 7-(4-phenoxyphenyl)-4-(pyrimidin-2-ylmethyl)-3,4-dihydrobenzo[f][1,4]oxazepin-5(2H)-one], the inhibition at 1 µM amounted to 63%.

As for `O=C1c2cc(-c3cccc(Oc4ccccc4)c3)ccc2OCCN1Cc1ncccn1` [II-195, 7-(3-phenoxyphenyl)-4-(pyrimidin-2-ylmethyl)-3,4-dihydrobenzo[f][1,4]oxazepin-5(2H)-one], the inhibition at 1 µM worked out at 66%.

As to `O=C(c1ccccc1)N1CCOc2ccc(-c3ccc(OC(F)(F)F)cc3)cc2C1` [III-4, phenyl(7-(4-(trifluoromethoxy)phenyl)-2,3-dihydrobenzo[f][1,4]oxazepin-4(5H)-yl)methanone], the inhibition at 1 µM turned out to be 35%.

As for `CC1(C(=O)N2CCOc3ccc(-c4ccc(OC(F)(F)F)cc4)cc3C2)CC1` [III-10, (1-methylcyclopropyl)(7-(4-(trifluoromethoxy)phenyl)-2,3-dihydrobenzo[f][1,4]oxazepin-4(5H)-yl)methanone], the inhibition at 1 µM amounted to 29%.

Values taken from patent US9676760B2, “Fused heterocyclic compounds as ion channel modulators” (Gilead Sciences, Inc., priority 2011, dated 2017).
